Bounds are passed on as bounds.

In general, IC50 refers to the point on the concentration scale where inhibition reaches its midpoint.

Series [1] relates to Salmonella typhimurium TA98. As to the kind of experiment: Reverse mutation test (Ames test), TA98. The series is classed as cell-based. The protocol:
(§1) In order to examine mutagenicity of Compound I-1, I-2, I-4 and I-5, reverse mutation test using Salmonella typhimurium TA98 and TA100 (hereinafter referred to as Ames test) was conducted.
(§2) The test was conducted without addition of S9mix and with addition of S9mix. Dimethylsulfoxide was used as a negative control. A positive control was 2-(2-furyl)-3-(5-nitro-2-furyl)acrylamide in case S9mix was not added, and 2-aminoanthracene in case S9mix was added.
(§3) The amount of each sample to be added to the test plate was 7 dosages (geometric ratio 4) with the maximum dose being 1250 μg/plate for Compounds I-1 and I-5, and 7 dosages (geometric ratio 3) with the maximum dose being 5000 μg/plate for Compounds I-2 and I-4. After a sample to be examined and a strain (TA98 or TA100), or a sample to be examined, S9mix and the strain were mixed together, the mixture was multilayered using soft agar on a medium of a test plate, and then incubated at 37° C. for 48 hours.

The subject of series [2] is Salmonella typhimurium TA100. As to the kind of experiment: Reverse mutation test (Ames test), TA100. The series is classed as cell-based. How it is done:
as §1, §2, §3
For orientation: The Ames test uses bacterial strains that need an amino acid and regain growth without it when mutated back.

For series [3], the system named is Salmonella typhimurium TA98 and TA100. As to the kind of experiment: Reverse mutation test (Ames test), overall judgment. As to conditions: TA98 and TA100, with and without S9mix. The series is classed as cell-based. The protocol: as §1, §2, §3
Series [4] deals with T1, amyloid (aggregated Aβ1-42) (Homo sapiens, UniProt P05067).
T1 construct: Aβ1-42 (Wako) was dissolved in phosphate buffer (pH 7.4); purchased Wako
As to the kind of experiment: Measurement of affinity with amyloid (inhibition of [125I]3′-I-BTA-0 binding), Example II-7. To be noted: [125I]3′-I-BTA-0 400 pmol/L, amyloid 1 μmol/L, 1% bovine serum albumin-containing phosphate buffer (pH 7.4). The text has this:
Then, each sample solution was filtered through a glass fiber filter (trade name: Mulutiscreen™-FC, manufactured by Millipore), to separate the [^125I]3′-I-BTA-0 attached to amyloid from the free [^125I]3′-I-BTA-0.
The measured radioactivity level was defined as the background radioactivity level, and used in the calculation of the inhibition ratio (hereinafter referred to as BG).
A graph in which values converted by probit transformation from the obtained inhibition ratios were plotted relative to logarithms of concentrations of compounds for evaluation was prepared to obtain an approximate straight line by the least square method.

Series [5] can be described thus: Partition coefficient based on the octanol extraction method, Examples II-8 to II-9. The series is classed as physicochemical. To be noted: octanol / 10 mmol/L phosphate buffer (pH 7.4); Table 2-4.
Description: To 2 mL of octanol, 10 μL each of the prepared sample solutions was added, 2 mL of 10 mmol/L phosphate buffer (pH 7.4) was added, followed by stirring for 30 seconds. After the mixture was centrifuged with a low-speed centrifuge (2000 rpm×60 min.), the octanol layer and the water layer were sampled each in an amount of 1 mL, and subjected to measurement of radioactivity count with an autowell gamma system (Type: ARC-301B, manufactured by Aloka). Using the obtained radioactivity count, log Poctanol was calculated in accordance with the equation (2-2).
A short description of series [6]: Transferability into brain and clearance, Examples II-10 to II-11. The series is classed as in vivo, male Wistar rats. As to conditions: rats, intravenous injection, Table 2-5.
Description: 0.05 mL each of the prepared sample solutions was injected under thiopental anesthesia into the tail vein of the rats. The rats were sacrificed by bleeding from abdominal artery, and brains were removed and subjected to measurement of mass of brains and further subjected to measurement of radioactivity (hereinafter referred to as A in this Example) with a single channel analyzer (detector type SP-20 manufactured by OHYO KOKEN KOGYO Co., Ltd.) 2, 5, 30, and 60 minutes after the injection. Further, the radioactivity level of the rest of the whole body was measured in the same manner as above (hereinafter referred to as B in this Example). Using these measurement results, radioactive distribution per unit weight of brain (% ID/g) at the respective time points were calculated in accordance with the following formula (2-3).
Three animals were used for the experiment at the respective time points.
Series [7] deals with T2, intracerebral amyloid (aggregated Aβ1-42 injected into amygdaloid nucleus) (Homo sapiens, UniProt P05067).
T2 construct: Aβ1-42 (Wako) was dissolved in phosphate buffer (pH 7.4); purchased Wako
As to the kind of experiment: Confirmation of imaging of amyloid in brain (ex vivo autoradiogram), Examples II-12 and II-13. Further details: species or system male Wistar rat. As to conditions: brain slice 60 minutes after tail vein injection. How it is done: (§4) The same procedures as in Example II-12 were performed except using a 10 mg/mL solution of Compound II-2 in ascorbic acid (the radioactive concentration of the sample solution was 25 MBq/mL).

The subject of series [8] is intracerebral amyloid (aggregated Aβ1-42 injected into amygdaloid nucleus). The description is as above. As to conditions: for radioactive accumulation at sites other than amyloid injected sites: autoradiogram, 60 minutes after tail vein injection; for accumulation of radioactivity in amygdaloid nucleus on the side to which the physiological saline solution was injected: brain slice 60 minutes after tail vein injection. Further details: species or system male Wistar rat. How it is done:
as §4

The conditions of series [9]: normal mice, [125I]-labeled, cited from earlier work; for transfer into brain: 2 minutes after administration.
Series [10] relates to Chinese Hamster fibroblast cell line (CHL/IU cell). As to the kind of experiment: Chromosome aberration test. As to conditions: short-term treatment with or without S9 and 24-hour continuous treatment; 0.15-1.2 mg/mL. The series is classed as cell-based. How it is done:
In order to examine whether Compound I-4 can induce chromosome aberration, the chromosome aberration test was conducted using Chinese Hamster fibroblast cell line (CHL/IU cell) in a culture system with or without addition of S9 by short-term treatment process and in a 24-hour culture system by continuous treatment process. The addition amount of a sample to be tested was set to 1.2, 0.6, 0.3, and 0.15 mg/mL for all the respective culture systems.

Series [11] concerns bone marrow cells of Crlj:CD1(ICR) male mouse. Nature of the series: Micronucleus test. The series is classed as in vivo. To be noted: for appearance frequency of MNPCE as compared to the negative control group: 24 and 48 hours after single administration. How it is done: In order to study mutagenicity (in vivo) of Compound I-4, induction of micronucleated polychromatic erythrocyte (hereinafter referred to as MNPCE) was examined using bone marrow cells of Crlj:CD1(ICR) male mouse.
0 mg/kg (negative control group), 250, 500, 1000 and 2000 mg/kg (test sample group) were set as doses for the test. Mice were sacrificed 24 and 48 hours after single oral administration, and bone marrow smear was prepared and observed. Further, a single dose of MMC at 2 mg/kg was abdominally administrated in positive control group, mice were sacrificed 24 hours after the administration, and then bone marrow smear was prepared and observed.
As statistical analysis, significance tests were conducted by Wilcoxon rank sum test for the appearance frequency of MNPCE and the ratio of polychromatic erythrocyte (hereinafter referred to as PCE) to the total red blood cell (hereinafter referred to as RBC) in each administration group concerning the test sample and positive control groups relative to the negative control group and concerning these groups relative to each other where the significance level was set to less than 5% and less than 1%, respectively.

For series [12] the following is noted: International Publication WO03/106439 pamphlet; cited from earlier work.
The nature of series [13]: Transferability into brain and clearance, Examples I-20 to I-21. The series is classed as in vivo, male Wistar rats. As to conditions: rats, intravenous injection, Table 1-7. The text has this:
Three animals were used for Experiment I-20 and Comparative Experiment I-9, and two animals were used for Experiment I-21 at the respective time points.

T1 sequence (P05067 672-713 limits assumed): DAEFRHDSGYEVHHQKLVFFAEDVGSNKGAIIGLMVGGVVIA
T2 sequence (P05067 672-713): as the sequence (P05067 672-713 limits assumed) above

As to `FCCCOc1ccc(-c2cn3cc(I)ccc3n2)cc1` [Compound I-2, 2-[4′-(3″-fluoropropoxy)phenyl]-6-iodoimidazo[1,2-a]pyridine], the “Mutagenicity, TA98” value in [1] (With addition of S9mix) and in series [1] (Without addition of S9mix) was “Negative” throughout. Further, the “Mutagenicity, TA100” value in series [2] (With addition of S9mix) and in series [2] (Without addition of S9mix) was “Negative” each time. In [3], the “judgment in the Ames test” value was “negative”.
`OCCOc1ccc(-c2cn3cc(I)ccc3n2)cc1` [Compound II-3, 2-[4′-(2″-hydroxyethoxy)phenyl]-6-iodoimidazo[1,2-a]pyridine]: the concentration for half-maximal inhibition (IC50) in series [4] was less than 100 nM.
As to `CCOc1ccc(-c2cn3cc([123I])ccc3n2)cc1` [Compound II-2, 2-(4′-ethoxyphenyl)-6-[^123I]iodoimidazo[1,2-a]pyridine], the logPoctanol value in [5] amounted to 2.1. In [6], the “Radioactive distribution in brain per unit weight, After 2 min.” value was determined as 0.89 % ID/g; the “Radioactive distribution in brain per unit weight, After 5 min.” value turned out to be 0.66 % ID/g; the “Radioactive distribution in brain per unit weight, After 30 min.” value is 0.13 % ID/g; the “Radioactive distribution in brain per unit weight, After 60 min.” value came to 0.04 % ID/g. Besides, the “accumulation of radioactivity in amygdaloid nucleus on the side to which the amyloid suspension was injected” value in series [7] is “marked accumulation of radioactivity”. Moreover, in series [8], the “radioactive accumulation at sites other than amyloid injected sites” value is on record as “some radioactive accumulation in sites other than amyloid injected sites, but the accumulation was highly suppressed as compared to ^123I-IMPY” and the “accumulation of radioactivity in amygdaloid nucleus on the side to which the physiological saline solution was injected” value is listed as “no significant accumulation of radioactivity”.
Take `CN(C)c1ccc(-c2nc3ccc(I)cc3s2)cc1` [TZDM, 6-iodo-2-[4′-(N,N-dimethylamino)phenyl]benzothiazole]: in series [9], the transfer into brain entry is “transferred into brain” and the “clearance from normal tissues” value is given as “insufficient in clearance from normal tissues”.
Regarding `FCCCOc1ccc(-c2cn3cc(Br)ccc3n2)cc1` [Compound I-1, 6-bromo-2-[4′-(3″-fluoropropoxy)phenyl]imidazo[1,2-a]pyridine], the “Mutagenicity, TA98” value in [1] (With addition of S9mix) and in series [1] (Without addition of S9mix) was “Negative” in each case. Besides, the “Mutagenicity, TA100” value in series [2] (With addition of S9mix) and in [2] (Without addition of S9mix) was “Negative” in each case. Also, in [3], the “judgment in the Ames test” value is “negative”.
In the case of `FCCOc1ccc(-c2cn3cc(I)ccc3n2)cc1` [Compound I-4, 2-[4′-(2″-fluoroethoxy)phenyl]-6-iodoimidazo[1,2-a]pyridine], the “Mutagenicity, TA98” value in series [1] (With addition of S9mix) and in series [1] (Without addition of S9mix) was “Negative” each time. Also, the “Mutagenicity, TA100” value in [2] (With addition of S9mix) and in series [2] (Without addition of S9mix) was “Negative” throughout. Also, the “judgment in the Ames test” value in [3] is given as “negative”. Also, the “appearance frequency of cells having structural aberration or numerical aberration (diploid)” value in [10] is recorded as “comparable to that of the negative control group”. The “capability of inducing chromosome aberration (judgment)” value in series [10] is reported as “negative”. In addition, the “appearance frequency of MNPCE as compared to the negative control group” value in series [11] (mouse bone marrow) is “no statistically significant difference”. For the same compound, in series [11] (mouse bone marrow, 24 and 48 hours after single oral administration, 250-2000 mg/kg), the “ratio of PCE to RBC as compared to the negative control group” value was “no statistically significant difference”. In addition, the “mutagenicity (in vivo) judgment” value in series [11] (single oral administration, 250-2000 mg/kg) was “negative”.
Regarding `Nc1c(/N=N/c2ccc(-c3ccc(/N=N/c4cc(S(=O)(=O)O)c5ccccc5c4N)cc3)cc2)cc(S(=O)(=O)O)c2ccccc12` [Congo Red, reference compound], in series [4], the IC50 was greater than 1000 nM.
As to `CO[C@@]12[C@H](COC(N)=O)C3=C(C(=O)C(C)=C(N)C3=O)N1C[C@@H]1N[C@@H]12` [MMC, reference compound], the “appearance frequency of MNPCE as compared to the negative control group” value in series [11] (mouse bone marrow) is given as “significant increase”.
On to `CC(=C(C#N)C#N)c1ccc2cc(N(C)CCF)ccc2c1` [FDDNP, 2-(1-{6-[(2-fluoroethyl)(methyl)amino]-2-naphthyl}ethylidene)malononitrile], for which, in series [12], the “reverse mutation test result” value is listed as “positive”.
For `CN(C)c1ccc(-c2nc3ccc(I)cc3o2)cc1` [IBOX, 6-iodo-2-[4′-(N,N-dimethylamino)phenyl]benzoxazole], in series [9], the transfer into brain entry is “transferred into brain” and the “clearance from normal tissues” value is reported as “insufficient in clearance from normal tissues”.
`CN(C)c1ccc(/C=C/c2ccc(I)cc2)cc1` [m-I-SB, (E)-4-dimethylamino-4′-iodostilbene]: in series [9], the transfer into brain result is on record as “transferred into brain” and the “clearance from normal tissues” value was “insufficient in clearance from normal tissues”.
Regarding `OCCOc1ccc(-c2cn3cc([123I])ccc3n2)cc1` [Compound II-1, 2-[4′-(2″-hydroxyethoxy)phenyl]-6-[^123I]iodoimidazo[1,2-a]pyridine], the logPoctanol value in series [5] was determined as 1.8. In series [6], the “Radioactive distribution in brain per unit weight, After 2 min.” value turned out to be 0.90 % ID/g; the “Radioactive distribution in brain per unit weight, After 5 min.” value is 0.52 % ID/g; the “Radioactive distribution in brain per unit weight, After 30 min.” value amounted to 0.06 % ID/g; the “Radioactive distribution in brain per unit weight, After 60 min.” value was 0.01 % ID/g. Further, in series [7], the “accumulation of radioactivity in amygdaloid nucleus on the side to which the amyloid suspension was injected” value is on record as “marked accumulation of radioactivity”. In [8], the “radioactive accumulation at sites other than amyloid injected sites” value is listed as “little radioactive accumulation at the sites other than amyloid injected sites” and the “accumulation of radioactivity in amygdaloid nucleus on the side to which the physiological saline solution was injected” value is reported as “no significant accumulation of radioactivity”.
As to `FCCCOc1ccc(-c2cn3cc(I)cnc3n2)cc1` [Compound I-5, 2-[4′-(3″-fluoropropoxy)phenyl]-6-iodoimidazo[1,2-a]pyrimidine], the “Mutagenicity, TA98” value in series [1] (With addition of S9mix) and in [1] (Without addition of S9mix) was “Negative” in each case. Also, the “Mutagenicity, TA100” value in series [2] (With addition of S9mix) and in series [2] (Without addition of S9mix) was “Negative” each time. Besides, in [3], the “judgment in the Ames test” value is “negative”.
On to `[18F]CCCOc1ccc(-c2cn3cc(Br)ccc3n2)cc1` [Compound I-8, 6-bromo-2-[4′-(3″-[^18F]fluoropropoxy)phenyl]imidazo[1,2-a]pyridine], for which the “Radioactive distribution in brain per unit weight, After 2 min.” value in series [13] (2 min.) is reported as 1.20 % ID/g. Also, the “Radioactive distribution in brain per unit weight, After 5 min.” value in [13] (5 min.) worked out at 0.75 % ID/g. Further, the “Radioactive distribution in brain per unit weight, After 30 min.” value in [13] (30 min.) came out at 0.18 % ID/g. Besides, the “Radioactive distribution in brain per unit weight, After 60 min.” value in [13] (60 min.) is on record as 0.12 % ID/g.

(Values after patent US8506930B2, “Compounds having affinity for amyloid” (Nihon Medi-Physics Co., Ltd., priority 2006, dated 2013).)
